Assay results as given in US11530210B2, “Substituted heteroaromatic pyrazolo-pyridines and their use as GLUN2B receptor modulators” (JANSSEN PHARMACEUTICA NV, priority 2019, dated 2022).

biological target: T1, human GluN1/GluN2B NMDA receptors (Homo sapiens, UniProt Q13224); test: Calcium flux (FLIPR) assay on cloned human NR1/GluN2B ion channels expressed in mammalian cells (standard and HTS variants); format: cell-based; settings: cells expressing human GluN1/GluN2B, glutamate and glycine co-agonists
T1 construct: expressed in transfected cells
T1 sequence (Q13224 27-1484, other chains not shown): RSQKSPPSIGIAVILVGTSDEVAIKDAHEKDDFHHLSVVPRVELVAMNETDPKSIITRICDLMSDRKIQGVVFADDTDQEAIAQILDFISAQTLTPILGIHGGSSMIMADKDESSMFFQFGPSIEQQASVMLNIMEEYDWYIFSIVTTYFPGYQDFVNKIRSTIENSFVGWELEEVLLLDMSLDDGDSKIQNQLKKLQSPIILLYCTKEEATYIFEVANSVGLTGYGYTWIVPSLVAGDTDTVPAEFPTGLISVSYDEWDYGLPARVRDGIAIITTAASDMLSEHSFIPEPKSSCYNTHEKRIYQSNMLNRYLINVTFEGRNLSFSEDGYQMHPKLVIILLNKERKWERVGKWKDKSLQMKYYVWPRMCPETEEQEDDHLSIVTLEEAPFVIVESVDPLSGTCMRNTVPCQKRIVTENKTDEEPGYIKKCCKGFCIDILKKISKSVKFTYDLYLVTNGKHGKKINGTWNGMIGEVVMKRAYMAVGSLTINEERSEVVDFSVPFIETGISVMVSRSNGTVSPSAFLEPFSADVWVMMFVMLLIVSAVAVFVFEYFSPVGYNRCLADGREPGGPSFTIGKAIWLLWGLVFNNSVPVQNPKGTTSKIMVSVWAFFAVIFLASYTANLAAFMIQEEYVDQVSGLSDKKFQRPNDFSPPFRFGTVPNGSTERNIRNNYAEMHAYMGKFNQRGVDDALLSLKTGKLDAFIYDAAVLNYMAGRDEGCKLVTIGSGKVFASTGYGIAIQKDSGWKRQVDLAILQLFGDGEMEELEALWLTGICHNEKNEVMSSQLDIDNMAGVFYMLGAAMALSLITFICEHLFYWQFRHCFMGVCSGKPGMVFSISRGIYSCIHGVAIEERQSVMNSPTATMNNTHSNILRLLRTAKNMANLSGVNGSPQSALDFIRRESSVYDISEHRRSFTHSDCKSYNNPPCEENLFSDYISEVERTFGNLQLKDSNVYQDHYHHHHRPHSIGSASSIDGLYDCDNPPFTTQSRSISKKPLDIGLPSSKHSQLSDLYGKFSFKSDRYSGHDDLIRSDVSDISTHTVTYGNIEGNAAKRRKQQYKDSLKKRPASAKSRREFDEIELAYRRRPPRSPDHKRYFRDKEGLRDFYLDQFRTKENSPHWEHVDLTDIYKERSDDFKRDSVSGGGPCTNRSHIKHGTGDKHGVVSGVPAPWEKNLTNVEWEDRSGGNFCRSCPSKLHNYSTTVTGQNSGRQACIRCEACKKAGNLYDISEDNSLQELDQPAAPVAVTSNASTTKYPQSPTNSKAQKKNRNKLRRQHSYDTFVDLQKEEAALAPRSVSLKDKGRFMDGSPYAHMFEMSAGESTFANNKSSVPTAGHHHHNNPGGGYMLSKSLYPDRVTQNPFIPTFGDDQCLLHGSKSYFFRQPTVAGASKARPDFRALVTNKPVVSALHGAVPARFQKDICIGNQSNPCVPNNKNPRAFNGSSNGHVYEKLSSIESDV
Method: Effects of Test Articles on Cloned Human NR1/GuN2B Ion Channels Expressed in Mammalian Cells
NMDA receptors are ion channels that are highly permeable to Ca^2+ ions, rendering it possible to monitor NMDA receptor function using cell-based calcium flux assay. In this assay, co-agonists glutamate and glycine are added to cells heterologously expressing human GluN1/GluN2B NMDA receptors to initiate cellular Ca^2+ influx. The time course of the changes in intracellular calcium is measured using a fluorescent dye and a FLIPR (Fluorometric Imaging Plate Reader) device.
Twenty-four hours before measurements, the expression of the NMDA receptors in the stable cell line is induced with Tet-On inducible system in the presence of a non-selective NMDA receptor blocker. On the day of the experiment, cell culture media is carefully washed, and the cells are loaded with Calcium 5 Dye Kit (Molecular Devices) in dye loading buffer containing 137 mM NaCl, 4 mM KCl, 2 mM CaCl2, 0.5 mM MgCl2 (standard assay) or 1.5 mM MgCl2 (HTS assay), 10 mM HEPES and 5 mM D-glucose; pH 7.4. After 1 h incubation at the room temperature, the dye is washed away with the assay buffer (137 mM NaCl (standard assay) or 150 mM (HTS assay), 4 mM KCl (standard assay) or 3 mM (HTS assay), 2 mM CaCl2), 0.01 mM EDTA, 10 mM HEPES and 5 mM D-glucose; pH 7.4) In the FLIPR TETRA reader, various concentrations of the test compounds are added to the cells for 5 min while fluorescence is monitored to detect potential agonist activity. Next, co-agonists, glutamate and glycine are added for another 5 minutes. The concentration of glutamate corresponding to ˜EC40 (standard assay) or EC40 (HTS assay) is used to maximize the assay's signal window and ability to detect NMDA receptor antagonists and negative allosteric modulators. A saturating concentration (10 μM) of glycine is also present in the assay. A non-selective NMDA receptor antagonist, (+)MK-801 is used as a positive control for antagonist activity. The fluorescent signal in the presence of test compounds is quantified and normalized to the signal defined by the appropriate control wells.

Compared with `Cc1nnc(Cn2ncc3ncc(-c4ccc(F)c(C(F)F)c4)cc32)n1C` [Example 75, 6-[3-(Difluoromethyl)-4-fluoro-phenyl]-1-[(4,5-dimethyl-1,2,4-triazol-3-yl)methyl]pyrazolo[4,3-b]pyridine], `CCc1nnc(Cn2ncc3ncc(-c4ccc(F)c(C(F)F)c4)cc32)n1C` [Example 76, 6-[3-(Difluoromethyl)-4-fluoro-phenyl]-1-[(5-ethyl-4-methyl-1,2,4-triazol-3-yl)methyl]pyrazolo[4,3-b]pyridine] is 28-fold higher in IC50: 139 nM for the first, 3830 nM for the second. The first is the more potent here.

Compared with `Cc1nnc(Cn2ncc3ncc(-c4ccc(Cl)s4)cc32)o1` [Example 77, 2-[[6-(5-Chloro-2-thienyl)pyrazolo[4,3-b]pyridin-1-yl]methyl]-5-methyl-1,3,4-oxadiazole], `Cc1nnc(Cn2ncc3ncc(-c4ccc(C(F)F)s4)cc32)o1` [Example 79, 2-[[6-[5-(Difluoromethyl)-2-thienyl]pyrazolo[4,3-b]pyridin-1-yl]methyl]-5-methyl-1,3,4-oxadiazole] is 1.7-fold higher in IC50: 89 nM for the first, 153 nM for the second. The first is the more potent here.

`Cc1nnc(Cn2ncc3ncc(-c4ccc(C(F)(F)F)s4)cc32)o1` [Example 78, 2-Methyl-5-[[6-[5-(trifluoromethyl)-2-thienyl]pyrazolo[4,3-b]pyridin-1-yl]methyl]-1,3,4-oxadiazole] and `Cc1nnc(Cn2ncc3ncc(-c4cccc(C(F)(F)F)c4)cc32)o1` [Example 85, 2-Methyl-5-[[6-[3-(trifluoromethyl)phenyl]pyrazolo[4,3-b]pyridin-1-yl]methyl]-1,3,4-oxadiazole] are the same in IC50: 143 nM for the first, 143 nM for the second.

First: Cc1noc(Cn2ncc3ncc(-c4ccc(F)cc4)cc32)n1 [Example 80, 5-[[6-(4-Fluorophenyl)pyrazolo[4,3-b]pyridin-1-yl]methyl]-3-methyl-1,2,4-oxadiazole]
Second: Cc1noc(Cn2ncc3ncc(-c4ccc(F)c(C(F)F)c4)cc32)n1 [Example 95, 5-[[6-[3-(Difluoromethyl)-4-fluoro-phenyl]pyrazolo[4,3-b]pyridin-1-yl]methyl]-3-methyl-1,2,4-oxadiazole]
The IC50 of the first is 24-fold higher: 957 nM for the first, 40 nM for the second. The second is the more potent here.

Compared with `COc1cccc(-c2cnc3cnn(Cc4nc(C)no4)c3c2)c1` [Example 81, 5-[[6-(3-Methoxyphenyl)pyrazolo[4,3-b]pyridin-1-yl]methyl]-3-methyl-1,2,4-oxadiazole], `Cc1noc(Cn2ncc3ncc(-c4cccc(C(F)(F)F)c4)cc32)n1` [Example 84, 3-Methyl-5-[[6-[3-(trifluoromethyl)phenyl]pyrazolo[4,3-b]pyridin-1-yl]methyl]-1,2,4-oxadiazole] is 7.9-fold lower in IC50: 2310 nM for the first, 293 nM for the second.

First: Cc1nnc(Cn2ncc3ncc(-c4cccc(C(C)(F)F)c4)cc32)o1 [Example 82, 2-[[6-[3-(1,1-Difluoroethyl)phenyl]pyrazolo[4,3-b]pyridin-1-yl]methyl]-5-methyl-1,3,4-oxadiazole]
Second: Cc1nnc(Cn2ncc3ncc(-c4ccc(F)c(C(C)(F)F)c4)cc32)o1 [Example 104, 2-[[6-[3-(1,1-Difluoroethyl)-4-fluoro-phenyl]pyrazolo[4,3-b]pyridin-1-yl]methyl]-5-methyl-1,3,4-oxadiazole]
The IC50 of the first is 1.5-fold lower: 160 nM for the first, 244 nM for the second.

First: Cc1nnc(Cn2nc(F)c3ncc(-c4cccc(C(C)(F)F)c4)cc32)o1 [Example 83, 2-[[6-[3-(1,1-Difluoroethyl)phenyl]-3-fluoro-pyrazolo[4,3-b]pyridin-1-yl]methyl]-5-methyl-1,3,4-oxadiazole]
Second: Cc1nnc(Cn2nc(F)c3ncc(-c4ccc(F)c(C)c4)cc32)o1 [Example 90, 2-[[3-Fluoro-6-(4-fluoro-3-methyl-phenyl)pyrazolo[4,3-b]pyridin-1-yl]methyl]-5-methyl-1,3,4-oxadiazole]
The IC50 of the first is 3.8-fold higher: 126 nM for the first, 33 nM for the second. The second is the more potent here.

Compared with `Cc1nc(Cn2ncc3ncc(-c4cccc(C(F)(F)F)c4)cc32)no1` [Example 86, 5-Methyl-3-[[6-[3-(trifluoromethyl)phenyl]pyrazolo[4,3-b]pyridin-1-yl]methyl]-1,2,4-oxadiazole], `FC(F)(F)c1cccc(-c2cnc3cnn(Cc4ncno4)c3c2)c1` [Example 87, 5-[[6-[3-(Trifluoromethyl)phenyl]pyrazolo[4,3-b]pyridin-1-yl]methyl]-1,2,4-oxadiazole] is 1.9-fold higher in IC50: 202 nM for the first, 383 nM for the second.

First: Cc1nnc(Cn2ncc3ncc(-c4ccnc(C(F)(F)F)c4)cc32)o1 [Example 88, 2-Methyl-5-[[6-[2-(trifluoromethyl)-4-pyridyl]pyrazolo[4,3-b]pyridin-1-yl]methyl]-1,3,4-oxadiazole]
Second: Cc1cc(-c2cnc3cnn(Cc4nnc(C(F)(F)F)o4)c3c2)ccc1F [Example 91, 2-[[6-(4-Fluoro-3-methyl-phenyl)pyrazolo[4,3-b]pyridin-1-yl]methyl]-5-(trifluoromethyl)-1,3,4-oxadiazole]
The IC50 of the first is 3.2-fold higher: 467 nM for the first, 145 nM for the second.

Compared with `Cc1nnc(Cn2ncc3ncc(-c4ccc(F)c(C)c4)cc32)o1` [Example 89, 2-[[6-(4-Fluoro-3-methyl-phenyl)pyrazolo[4,3-b]pyridin-1-yl]methyl]-5-methyl-1,3,4-oxadiazole], `Cc1nnc(Cn2ncc3ncc(-c4ccc(F)c(Cl)c4)cc32)o1` [Example 92, 2-[[6-(3-Chloro-4-fluoro-phenyl)pyrazolo[4,3-b]pyridin-1-yl]methyl]-5-methyl-1,3,4-oxadiazole] is 2.4-fold higher in IC50: 37 nM for the first, 90 nM for the second.

First: Cc1nnc(Cn2nc(F)c3ncc(-c4ccc(F)c(Cl)c4)cc32)o1 [Example 93, 2-[[6-(3-Chloro-4-fluoro-phenyl)-3-fluoro-pyrazolo[4,3-b]pyridin-1-yl]methyl]-5-methyl-1,3,4-oxadiazole]
Second: CN(C)c1nnc(Cn2ncc3ncc(-c4ccc(F)c(C(F)F)c4)cc32)o1 [Example 101, 5-[[6-[3-(Difluoromethyl)-4-fluoro-phenyl]pyrazolo[4,3-b]pyridin-1-yl]methyl]-N,N-dimethyl-1,3,4-oxadiazol-2-amine]
The IC50 of the first is lower: 87 nM for the first, > 2990 nM for the second.

Going from `Fc1ccc(-c2cnc3cnn(Cc4nnco4)c3c2)cc1C(F)F` [Example 94, 2-[[6-[3-(Difluoromethyl)-4-fluoro-phenyl]pyrazolo[4,3-b]pyridin-1-yl]methyl]-1,3,4-oxadiazole] to `CC(C)c1nnc(Cn2ncc3ncc(-c4ccc(F)c(C(F)F)c4)cc32)o1` [Example 100, 2-[[6-[3-(Difluoromethyl)-4-fluoro-phenyl]pyrazolo[4,3-b]pyridin-1-yl]methyl]-5-isopropyl-1,3,4-oxadiazole], the IC50 rises from 58 nM to 550 nM (9.5-fold). The first is the more potent here.

`Cc1nonc1Cn1ncc2ncc(-c3ccc(F)c(C(F)F)c3)cc21` [Example 98, 3-[[6-[3-(Difluoromethyl)-4-fluoro-phenyl]pyrazolo[4,3-b]pyridin-1-yl]methyl]-4-methyl-1,2,5-oxadiazole] and `Fc1ccc(-c2cnc3cnn(Cc4nnc(C(F)(F)F)o4)c3c2)cc1C(F)F` [Example 102, 2-[[6-[3-(Difluoromethyl)-4-fluoro-phenyl]pyrazolo[4,3-b]pyridin-1-yl]methyl]-5-(trifluoromethyl)-1,3,4-oxadiazole] are within 1.5-fold of each other in IC50: 34 nM for the first, 49 nM for the second.

First: Fc1ccc(-c2cnc3cnn(Cc4nnc(C5CC5)o4)c3c2)cc1C(F)F [Example 99, 2-Cyclopropyl-5-[[6-[3-(difluoromethyl)-4-fluoro-phenyl]pyrazolo[4,3-b]pyridin-1-yl]methyl]-1,3,4-oxadiazole]
Second: Fc1ccc(-c2cnc3cnn(Cc4nnc(-c5ccccc5)o4)c3c2)cc1C(F)F [Example 103, 2-[[6-[3-(Difluoromethyl)-4-fluoro-phenyl]pyrazolo[4,3-b]pyridin-1-yl]methyl]-5-phenyl-1,3,4-oxadiazole]
The IC50 of the first is lower: 70 nM for the first, > 2990 nM for the second. The first is the more potent here.
